Test results published in patent US20260217767A1, “NOVEL A4B7 THIOETHER PEPTIDE DIMER ANTAGONISTS” (Protagonist Therapeutics, Inc., priority 2014, published 2026).
Each block holds one compound with its values, some of them ahead of it. *1 amine or outer side, *2 acyl side, *3 side chain or, on linkers, in order; H or OH if unused. Where a SMILES comes first, the peptide text is derived from it. Bridges are numbered along the chain shown (N, C = ends). Roman numbers before positions name the chains, in order. [ ]: non-standard residue; d: D form. 2Nal = N[C@@H](Cc1ccc2ccccc2c1)C(=O)O; Diglycolyl = O=C(COCC(=O)[*:2])[*:1]; NMeR = CN[C@@H](CCCNC(=N)N)C(=O)O; Tic = O=C(O)[C@@H]1Cc2ccccc2CN1; X1 = O=C(c1ccccc1C[*:2])[*:1]; Pen = CC(C)(S)[C@H](N)C(=O)O

Columns and labels:
RPMI 8866 cells = target: T1, RPMI 8866 cells (Homo sapiens, UniProt P13612+P26010); test: α4β7-MAdCAM Cell Adhesion Assay; type: cell-based; settings: thioether peptide dimers, Table 7; read-out: Cell-Adhesion A4B7
T1 sequence (P13612 34-1032): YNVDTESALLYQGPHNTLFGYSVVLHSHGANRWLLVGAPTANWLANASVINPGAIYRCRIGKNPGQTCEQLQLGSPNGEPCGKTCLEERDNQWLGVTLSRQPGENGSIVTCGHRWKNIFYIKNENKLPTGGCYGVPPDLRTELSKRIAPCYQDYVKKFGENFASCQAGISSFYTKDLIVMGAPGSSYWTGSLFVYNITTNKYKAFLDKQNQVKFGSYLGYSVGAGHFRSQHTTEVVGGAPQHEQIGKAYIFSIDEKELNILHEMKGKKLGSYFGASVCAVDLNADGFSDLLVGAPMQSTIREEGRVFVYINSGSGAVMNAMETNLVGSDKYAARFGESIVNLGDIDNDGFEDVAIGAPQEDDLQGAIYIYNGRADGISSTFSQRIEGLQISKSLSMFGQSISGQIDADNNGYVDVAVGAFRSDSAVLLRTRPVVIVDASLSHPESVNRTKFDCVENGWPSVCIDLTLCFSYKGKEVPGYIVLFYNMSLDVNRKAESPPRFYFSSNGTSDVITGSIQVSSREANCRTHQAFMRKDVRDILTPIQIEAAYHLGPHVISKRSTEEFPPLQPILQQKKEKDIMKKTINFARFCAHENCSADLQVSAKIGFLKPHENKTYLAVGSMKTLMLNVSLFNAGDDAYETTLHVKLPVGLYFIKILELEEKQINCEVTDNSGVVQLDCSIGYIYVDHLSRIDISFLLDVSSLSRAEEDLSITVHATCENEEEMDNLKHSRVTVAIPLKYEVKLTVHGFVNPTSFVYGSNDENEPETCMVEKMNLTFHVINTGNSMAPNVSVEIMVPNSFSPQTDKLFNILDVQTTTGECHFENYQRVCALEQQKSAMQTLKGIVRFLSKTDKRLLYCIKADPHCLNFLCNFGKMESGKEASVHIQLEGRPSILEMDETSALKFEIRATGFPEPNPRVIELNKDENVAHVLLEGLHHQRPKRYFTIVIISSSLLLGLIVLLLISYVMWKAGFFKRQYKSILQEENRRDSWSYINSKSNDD
T1 sequence (P26010 20-798): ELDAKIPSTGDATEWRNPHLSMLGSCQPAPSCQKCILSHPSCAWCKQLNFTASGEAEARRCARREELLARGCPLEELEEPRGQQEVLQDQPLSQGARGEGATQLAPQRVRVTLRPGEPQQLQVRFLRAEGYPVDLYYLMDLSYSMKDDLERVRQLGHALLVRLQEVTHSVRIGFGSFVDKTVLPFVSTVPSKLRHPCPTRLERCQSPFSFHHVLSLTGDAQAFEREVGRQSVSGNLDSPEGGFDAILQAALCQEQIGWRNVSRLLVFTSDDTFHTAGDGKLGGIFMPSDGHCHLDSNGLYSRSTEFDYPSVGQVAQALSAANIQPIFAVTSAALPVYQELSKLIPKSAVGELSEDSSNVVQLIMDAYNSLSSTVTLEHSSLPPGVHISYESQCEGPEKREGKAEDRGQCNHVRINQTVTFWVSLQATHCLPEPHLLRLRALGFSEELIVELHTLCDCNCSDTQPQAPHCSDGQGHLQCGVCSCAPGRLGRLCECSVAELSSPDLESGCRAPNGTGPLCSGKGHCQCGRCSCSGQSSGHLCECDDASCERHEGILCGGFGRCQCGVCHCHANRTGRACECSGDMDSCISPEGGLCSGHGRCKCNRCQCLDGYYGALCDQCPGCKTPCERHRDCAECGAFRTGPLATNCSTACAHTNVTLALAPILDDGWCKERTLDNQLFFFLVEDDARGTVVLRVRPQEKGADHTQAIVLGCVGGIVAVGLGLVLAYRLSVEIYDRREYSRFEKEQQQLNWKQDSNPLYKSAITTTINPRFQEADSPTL
Summary of the method: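 RPMI 8866 cells (200,000/well) in DMEM with 1 mM MnCl2 and 0.1% BSA were allowed to adhere 30-45 min at 37° C to plates coated with rh MAdCAM-1/Fc (200 ng/well) in presence of serially diluted peptide. After washing, bound cells quantified by MTT, absorbance 570 nm, cell-free background subtracted.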

[1] = Simulated Intestinal Fluid (SIF) Stability Assay; type: in vitro ADME; settings: 37° C.; for half-life: porcine pancreatin
Experimental: Simulated Intestinal Fluid (SIF) Stability Assay
Studies were carried out in simulated intestinal fluid (SIF) to evaluate intestinal stability of the peptide molecules of the instant invention. To prepare the SIF reagent, blank FASSIF was prepared by dissolving 0.348 g NaOH, 3.954 g sodium phosphate monobasic monohydrate and 6.186 g NaCl in a final volume of 1 liter water (final pH=6.5). To this solution, 24 g porcine pancreatin (Sigma catalog P7545) was added and stirred for 30 minutes (final pancreatin concentration is 2.4%). The solution was filtered through a cheese cloth and a No. 1 Whatman filter, and 10 ml aliquots were stored at −70° C. To run the reaction, a 10 ml aliquot was thawed at 37° C., and 125 μl aliquots were removed and mixed with an equal volume of blank FASSIF. The peptide stock solution (10 mM in 100% DMSO) was diluted 75-fold in blank FASSIF. A 50 μl aliquot of the diluted peptide was combined with 125 μl pancreatin (2.4%) and 125 μl blank FASSIF to yield final concentrations of 1% pancreatin and 22 μM peptide. The reactions were incubated at 37° C., and at various time points 50 μl aliquots were removed and added to 200 μl of quench solution containing 50% acetonitrile, 50% methanol, 5% formic acid, and 1 μg/ml internal standard. The quenched samples were centrifuged at 10,000 rpm for 10 minutes, and the supernatants were analyzed by LCMS/MS. The percent remaining at each time point was calculated based on the peak area response ratio of test to compound to internal standard. Half-lives were calculated by fitting to a first-order exponential decay equation using GraphPad. A small sampling of the results of these studies is provided and discussed herein and in the accompanying figures.

[2] = simulated gi fluid, dimers, Table 7
[3] = simulated gi fluid, monomers, Table 6

IC50 (RPMI 8866 cells): 100 to 1000 nM
half-life at 22 μM ([1]; pig, simulated intestinal fluid (SIF) with 1% porcine pancreatin, pH 6.5, porcine pancreatin, dimers, Table 7): > 3 h
Structure (SMILES): CC(C)C[C@@H]1NC(=O)[C@H]([C@@H](C)O)NC(=O)[C@H](CC(=O)O)NC(=O)[C@H](CO)NC(=O)[C@H](CCCNC(=N)N)N(C)C(=O)c2ccccc2CSC(C)(C)[C@@H](C(=O)N[C@H](Cc2ccccc2)C(=O)N[C@@H](Cc2ccc3ccccc3c2)C(=O)N[C@H](CCCCNC(=O)COCC(=O)NCCCC[C@@H](NC(=O)[C@H](Cc2ccc3ccccc3c2)NC(=O)[C@@H](Cc2ccccc2)NC(=O)[C@H]2NC(=O)[C@H](CC(C)C)NC(=O)[C@H]([C@@H](C)O)NC(=O)[C@H](CC(=O)O)NC(=O)[C@H](CO)NC(=O)[C@H](CCCNC(=N)N)N(C)C(=O)c3ccccc3CSC2(C)C)C(N)=O)C(N)=O)NC1=O [compound 162] (I: [NMeR]SDTL[Pen][dF][2Nal][dK]-NH2 / II: [NMeR]SDTL[Pen][dF][2Nal][dK]-NH2; linker I:9-II:9 via Diglycolyl; linker I:N-I:6, II:N-II:6 via X1)

Structure (SMILES): COC(=O)CC[C@H](NC(=O)[C@@H]1Cc2ccccc2CN1C(=O)[C@@H]1CSCc2ccccc2C(=O)N(C)[C@@H](CCCNC(=N)N)C(=O)N[C@@H](CO)C(=O)N[C@@H](CC(=O)O)C(=O)N[C@@H]([C@@H](C)O)C(=O)N[C@@H](CC(C)C)C(=O)N1)C(=O)N[C@H](CCCCNC(=O)COCC(=O)NCCCC[C@@H](NC(=O)[C@H](CCC(=O)OC)NC(=O)[C@@H]1Cc2ccccc2CN1C(=O)[C@@H]1CSCc2ccccc2C(=O)N(C)[C@@H](CCCNC(=N)N)C(=O)N[C@@H](CO)C(=O)N[C@@H](CC(=O)O)C(=O)N[C@@H]([C@@H](C)O)C(=O)N[C@@H](CC(C)C)C(=O)N1)C(=O)O)C(=O)O [compound 220] (I: [NMeR]SDTLC[Tic]E(OMe)[dK]-OH / II: [NMeR]SDTLC[Tic]E(OMe)[dK]-OH; linker I:9-II:9 via Diglycolyl; linker I:N-I:6, II:N-II:6 via X1)
IC50 (RPMI 8866 cells): < 25 nM
half-life ([1]; pig, dimers, Table 7): > 3 h

half-life [1, 2]: < 0.333 h
Structure (SMILES): CCCC[C@@H]1NC(=O)[C@H]([C@@H](C)O)NC(=O)[C@H](CC(=O)O)NC(=O)[C@H](CO)NC(=O)[C@H](CCCNC(=N)N)N(C)C(=O)c2ccccc2CSC(C)(C)[C@@H](C(=O)N[C@@H](Cc2c[nH]c3ccccc23)C(=O)N[C@@H](CCC(=O)O)C(=O)N[C@H](CCCCN)C(N)=O)NC1=O [compound 154] (HELM PEPTIDE1{[meR].S.D.T.[Nle].[Pen].W.E.[dK].[am]}|CHEM1{[O=C(c1ccccc1C[*:2])[*:1]]}$PEPTIDE1,CHEM1,1:R1-1:R1|PEPTIDE1,CHEM1,6:R3-1:R2$$$V2.0)

half-life [1, 3]: > 3 h
Structure (SMILES): CC(C)C[C@@H]1NC(=O)[C@H]([C@@H](C)O)NC(=O)[C@H](CC(=O)O)NC(=O)[C@H](CO)NC(=O)[C@H](CCCNC(=N)N)N(C)C(=O)c2ccccc2CSC(C)(C)[C@@H](C(=O)N[C@@H](Cc2c[nH]c3ccccc23)C(=O)N[C@H](CCC(=O)O)C(=O)N[C@H](CCCCN)C(N)=O)NC1=O [compound 60] (HELM PEPTIDE1{[meR].S.D.T.L.[Pen].W.[dE].[dK].[am]}|CHEM1{[O=C(c1ccccc1C[*:2])[*:1]]}$PEPTIDE1,CHEM1,1:R1-1:R1|PEPTIDE1,CHEM1,6:R3-1:R2$$$V2.0)

half-life [1, 3]: > 3 h
Structure (SMILES): CC(C)C[C@@H]1NC(=O)[C@H]([C@@H](C)O)NC(=O)[C@H](CC(=O)O)NC(=O)[C@H](CO)NC(=O)[C@H](CCCNC(=N)N)N(C)C(=O)c2ccccc2CSC(C)(C)[C@@H](C(=O)N[C@@H](Cc2c[nH]c3ccccc23)C(=O)N[C@@H](Cc2ccc(O)cc2)C(=O)N(C)[C@@H](CCCCN)C(N)=O)NC1=O [compound 63] (HELM PEPTIDE1{[meR].S.D.T.L.[Pen].W.Y.[meK].[am]}|CHEM1{[O=C(c1ccccc1C[*:2])[*:1]]}$PEPTIDE1,CHEM1,1:R1-1:R1|PEPTIDE1,CHEM1,6:R3-1:R2$$$V2.0)

half-life [1, 2]: < 0.333 h
Structure (SMILES): CC(C)C[C@@H]1NC(=O)[C@H]([C@@H](C)O)NC(=O)[C@H](CC(=O)O)NC(=O)[C@H](CO)NC(=O)[C@H](CCCNC(=N)N)N(C)C(=O)c2ccccc2CSC(C)(C)[C@@H](C(=O)N[C@@H](Cc2c[nH]c3ccccc23)C(=O)N[C@@H](CCC(=O)O)C(=O)N[C@H](CCCCN)C(N)=O)NC1=O [compound 146] (HELM PEPTIDE1{[meR].S.D.T.L.[Pen].W.E.[dK].[am]}|CHEM1{[O=C(c1ccccc1C[*:2])[*:1]]}$PEPTIDE1,CHEM1,1:R1-1:R1|PEPTIDE1,CHEM1,6:R3-1:R2$$$V2.0)

half-life [1, 3]: 2.98 h
Structure (SMILES): CCCC[C@@H]1NC(=O)[C@H]([C@@H](C)O)NC(=O)[C@H](CC(=O)O)NC(=O)[C@H](CO)NC(=O)[C@H](CCCNC(=N)N)N(C)C(=O)c2ccccc2CSC(C)(C)[C@@H](C(=O)N[C@@H](Cc2c[nH]c3ccccc23)C(=O)N[C@@H](CCC(=O)O)C(=O)N[C@H](CCCCN)C(N)=O)NC1=O [compound 64] (HELM PEPTIDE1{[meR].S.D.T.[Nle].[Pen].W.E.[dK].[am]}|CHEM1{[O=C(c1ccccc1C[*:2])[*:1]]}$PEPTIDE1,CHEM1,1:R1-1:R1|PEPTIDE1,CHEM1,6:R3-1:R2$$$V2.0)

Structure (SMILES): CC(C)C[C@@H]1NC(=O)[C@H]([C@@H](C)O)NC(=O)[C@H](CC(=O)O)NC(=O)[C@H](CO)NC(=O)[C@H](CCCNC(=N)N)N(C)C(=O)c2ccccc2CSC(C)(C)[C@@H](C(=O)N[C@@H](Cc2ccccc2)C(=O)N[C@H](CCC(=O)O)C(=O)N[C@H](CCCCN)C(N)=O)NC1=O [compound 65] (HELM PEPTIDE1{[meR].S.D.T.L.[Pen].F.[dE].[dK].[am]}|CHEM1{[O=C(c1ccccc1C[*:2])[*:1]]}$PEPTIDE1,CHEM1,1:R1-1:R1|PEPTIDE1,CHEM1,6:R3-1:R2$$$V2.0)
half-life [1, 3]: > 3 h

half-life [1, 3]: 3.1 h
Structure (SMILES): CC(C)C[C@@H]1NC(=O)[C@H]([C@@H](C)O)NC(=O)[C@H](CC(=O)O)NC(=O)[C@H](CO)NC(=O)[C@H](CCCNC(=N)N)N(C)C(=O)c2ccccc2CSC(C)(C)[C@@H](C(=O)N[C@@H](Cc2c[nH]c3ccccc23)C(=O)N[C@@H](CCC(=O)O)C(=O)N[C@H](CCCCN)C(N)=O)NC1=O [compound 56] (HELM PEPTIDE1{[meR].S.D.T.L.[Pen].W.E.[dK].[am]}|CHEM1{[O=C(c1ccccc1C[*:2])[*:1]]}$PEPTIDE1,CHEM1,1:R1-1:R1|PEPTIDE1,CHEM1,6:R3-1:R2$$$V2.0)
